Assay [1] concerns the target T1, Rorγt (Mus musculus, UniProt P51450).
T1 construct: expressed in transfected cells; host or cells: EL4 cells stably transfected with Rorγt vector
T1 sequence (P51450 1-495 isoform P51450-2): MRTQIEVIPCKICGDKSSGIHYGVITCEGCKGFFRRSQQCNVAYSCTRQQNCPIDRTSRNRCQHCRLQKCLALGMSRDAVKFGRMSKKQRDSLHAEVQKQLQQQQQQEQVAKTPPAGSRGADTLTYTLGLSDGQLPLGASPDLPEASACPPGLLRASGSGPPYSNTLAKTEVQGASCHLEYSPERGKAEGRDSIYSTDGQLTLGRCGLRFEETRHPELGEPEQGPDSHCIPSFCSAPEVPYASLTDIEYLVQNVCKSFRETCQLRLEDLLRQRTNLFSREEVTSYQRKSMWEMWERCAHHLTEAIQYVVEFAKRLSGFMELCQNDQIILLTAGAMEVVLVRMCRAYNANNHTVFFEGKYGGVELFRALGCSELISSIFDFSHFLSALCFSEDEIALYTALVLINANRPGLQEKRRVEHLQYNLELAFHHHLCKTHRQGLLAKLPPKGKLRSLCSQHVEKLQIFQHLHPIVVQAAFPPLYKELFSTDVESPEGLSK
Kind of assay: Dual luciferase reporter assay of Rorγt transcriptional activity in EL4 cells. Format: cell-based. Particulars: EL4 cells, CD5L-RV 100 ng; ligand 5, 0.5 or 0.05 uM. As for the experimental part:
Cells and supernatant were harvested at 96 hours and subjected to MS/LC. Three independent mouse experiments were performed. […] All ChIP and luciferase assay are representative of at least 3 independent experiments.
Three independent experiments were performed.
Background: In a reporter assay the amount or activity of a reporter protein is the signal.

Assay [2] deals with Th17 cells. The assay can be described thus: qPCR of Cd5l expression in differentiated T cells. Format: cell-based, mouse. The note with it: naïve T cells differentiated with TGF-β1+IL-6 for 48h, expanded in IL-23 in fresh media, 72h. As for the experimental part: FIG. 16A-16I. CD5L is a candidate regulator of Th17 cell functional states. (FIG. 16A-FIG. 16C) Single-cell RNA-seq analysis. (FIG. 16A) Cd5l expression of single-cells from in-vitro generated and in-vivo sorted Th17 cells (IL-17.GFP+) from mice at the peak of EAE. […] (FIG. 16D-FIG. 16F) Validation of CD5L expression in vitro. Naïve T cells (CD4+CD62L+CD44−CD25−) were sorted and differentiated as indicated and analyzed by qPCR for CD5L expression at 48h (D) and 72h (E) and by flow cytometry at 48h (F); (E) IL-23 or control was added at 48h in fresh media. (FIG. 16G-FIG. 16I) Validation of Cd5l expression in vivo. (G,H) IL-17A.GFP reporter mice were immunized to induce EAE. Cells were sorted from spleen (G) and CNS (H) at the peak of disease. Cd5l and Il17a expression are measured by qPCR. Figure shown is representative data of three technical replicates from two independent experiments. (I) Cells were sorted from the gut of naïve mice and the number of RNA transcripts measured by nanostring nCounter platform.
Next, Applicants explored whether CD5L expression is associated with less pathogenic Th17 cells in vivo. Applicants analyzed Th17 cells isolated from mice induced with EAE. […] Next, Applicants analyzed Th17 cells from mesenteric lymph nodes (mLN) and lamina propria (LP) of naïve mice, where Th17 cells contribute to tissue homeostasis and mucosal barrier function. […]

Turning to `CC(CO)CCC[C@@H](C)[C@H]1CC[C@H]2[C@@H]3[C@@H](O)C=C4C[C@@H](O)CC[C@]4(C)[C@H]3CC[C@]12C` (stereo partly drawn) [7β, 27-dihydroxycholesterol], the “Il17 reporter transcription (luciferase)” value in assay [1] is given as “rescued the CD5L-driven suppression of Il17 reporter transcription”.

B1: IL-23: recombinant mouse IL-23 (R&D), 20 ng/ml (protein, UniProt Q9EQ14 22-196; P43432 23-335, looked up)
Interleukin-23 subunit alpha: VPRSSSPDWAQCQQLSRNLCMLAWNAHAPAGHMNLLREEEDEETKNNVPRIQCEDGCDPQGLKDNSQFCLQRIRQGLAFYKHLLDSDIFKGEPALLPDSPMEQLHTSLLGLSQLLQPEDHPRETQQMPSLSSSQQWQRPLLRSKILRSLQAFLAIAARVFAHGAATLTEPLVPTA
Interleukin-12 subunit beta: MWELEKDVYVVEVDWTPDAPGETVNLTCDTPEEDDITWTSDQRHGVIGSGKTLTITVKEFLDAGQYTCHKGGETLSHSHLLLHKKENGIWSTEILKNFKNKTFLKCEAPNYSGRFTCSWLVQRNMDLKFNIKSSSSSPDSRAVTCGMASLSAEKVTLDQRDYEKYSVSCQEDVTCPTAEETLPIELALEARQQNKYENYSTSFFIRDIIKPDPPKNLQMKPLKNSQVEVSWEYPDSWSTPHSYFSLKFFVRIQRKKEKMKETEEGCNQKGAFLVEKTSTEVQCKGGNVCVQAQDRYYNSSCSKWACVPCRVRS
B1: the “Cd5l expression (qPCR)” value in assay [2] is given as “suppressed”.
